Assay results: US9056851B2, “Thiolactone antibiotics” (priority 2011, dated 2015)
≈ marks a conversion by molar mass, not a printed value. Like-named read-outs stand apart in the source and are kept apart here.

What was measured:
[1] = tested on: M. smegmatis MC^2155; assay: MIC against M. smegmatis; format: cell-based; conditions: Mycolicibacterium smegmatis
[2] = tested on: B. thialandensis Bt38; assay: MIC against B. thialandensis; format: cell-based; conditions: read-out: MIC (μg/ml) B. thialandensis Bt.38 (efflux^−)
[3] = tested on: F. tularensis LVS; assay: microbe, parasite or virus in culture; format: cell-based; conditions: Francisella tularensis, read-out: MIC (μg/ml) F. tu
[4] = tested on: M. tuberculosis H37Rv; assay: MIC against M. tuberculosis; format: cell-based; conditions: Mycobacterium tuberculosis, read-out: MIC (μg/ml) M. tb (MIC99)
[5] = tested on: Y. pestis A1122; assay: microbe, parasite or virus in culture; format: cell-based; conditions: Yersinia pestis, A1122, read-out: MIC (μg/ml) Y. pestis
[6] = tested on: S. aureus RN4220; assay: MIC against S. aureus RN4220 (MSSA); format: cell-based; conditions: Staphylococcus aureus
[7] = tested on: S. aureus BAA1762; assay: MIC against S. aureus BAA1762 (MRSA); format: cell-based; conditions: Staphylococcus aureus, read-out: MIC (μg/ml) Staph. aureus BAA1762 MRSA
[8] = tested on: mammalian FAS-I enzymes; conditions: selectivity versus FAS-II KAS enzymes; cited from earlier work
[9] = tested on: Salmonella paratyphi; conditions: cited from earlier work
[10] = tested on: B. pseudomallei Bp82z66; assay: microbe, parasite or virus in culture; format: cell-based; conditions: Burkholderia pseudomallei, BP82Z66, read-out: MIC (μg/ml) B. pseudomallei
[11] = tested on: Staphylococcus aureus; conditions: cited from earlier work
[12] = tested on: M. tuberculosis; conditions: cited from earlier work
[13] = tested on: Serratia marcescens; conditions: cited from earlier work
[14] = tested on: E. coli 11; conditions: cited from earlier work
[15] = in vivo; cited from earlier work
[16] = tested on: Serratia marcescens; conditions: urinary tract and oral infections; cited from earlier work
[17] = tested on: Salmonella typhi; conditions: cited from earlier work
[18] = tested on: Klebsiella pneumoniae; conditions: cited from earlier work
[19] = tested on: bacteria of Table 4; conditions: broad range of bacteria (Table 4); cited from earlier work
[20] = tested on: Klebsiella pneumoniae; conditions: urinary tract and oral infections; cited from earlier work
[21] = tested on: Shigella sonnei T1; conditions: cited from earlier work
[22] = tested on: Salmonella enterides T-1; conditions: cited from earlier work
[23] = tested on: E. coli NIHJ; conditions: cited from earlier work
[24] = rats, orally and by intramuscular injection; cited from earlier work
[25] = tested on: E. coli No9; conditions: cited from earlier work
[26] = tested on: Pasteurella multocida; conditions: cited from earlier work
[27] = in vivo; cited from earlier work; remark: listed apart in the source
[28] = tested on: Shigella flexneri 2b T1; conditions: cited from earlier work
[29] = MC^2155, MIC90, read-out: MIC (μg/ml) M. smeg
[30] = MIC90, read-out: MIC (μg/ml) Staph. aureus RN4220 MSSA

## C=C/C(C)=C/[C@@]1(C)SC(=O)C(CCC)=C1O [TLM4, 5R-(+)-3-Propylthiolactomycin]
[1]; [29]
  MIC: > 100 µg/mL
[2]
  MIC: 250 µg/mL (≈ 1050 µM)
[3]
  MIC: 25.8 µg/mL (≈ 108 µM)
[4]; MIC99, H37Rv
  MIC99: 12.5 µg/mL (≈ 52.4 µM)
[5]
  MIC: 250 µg/mL (≈ 1050 µM)
[6]; [30]
  MIC: > 200 µg/mL
[7]; MIC90
  MIC: > 200 µg/mL

## C=C/C(C)=C/[C@@]1(C)SC(=O)C(C)=C1O [TLM, 5R-(+)-Thiolactomycin]
[8]
  inhibition of mammalian FAS-I enzymes: does not inhibit
[9]
  MIC: 50 µg/mL (≈ 238 µM)
[10]
  MIC: 13.1 µg/mL (≈ 62.4 µM)
[11]
  MIC: 25 µg/mL (≈ 119 µM)
[12]
  MIC: 25 µg/mL (≈ 119 µM)
[13]
  MIC: 100 µg/mL (≈ 476 µM)
[14]
  MIC: 25 µg/mL (≈ 119 µM)
[15]
  bioavailability: high bioavailability
[16]
  protection from infection: provides protection
[1]; MC^2155, read-out: MIC (μg/ml) M. smeg
  MIC: 25 µg/mL (≈ 119 µM)
[17]
  MIC: 12.5 µg/mL (≈ 59.4 µM)
[18]
  MIC: 100 µg/mL (≈ 476 µM)
[19]
  MIC values, range over organisms: 6 to 200 µg/mL
[20]
  protection from infection: provides protection
[21]
  MIC: 100 µg/mL (≈ 476 µM)
[22]
  MIC: 12.5 µg/mL (≈ 59.4 µM)
[3]
  MIC: 2.81 µg/mL (≈ 13.4 µM)
[4]; H37RV
  MIC99: 3.13 µg/mL (≈ 14.9 µM)
[23]
  MIC: 200 µg/mL (≈ 951 µM)
[24]
  absorption: rapidly absorbed
[25]
  MIC: 100 µg/mL (≈ 476 µM)
[5]
  MIC: 8.09 µg/mL (≈ 38.5 µM)
[26]
  MIC: 0.2 µg/mL (≈ 0.951 µM)
[6]; read-out: MIC (μg/ml) Staph. aureus RN4220 MSSA
  MIC: 75 µg/mL (≈ 357 µM)
[27]
  toxicity: low toxicity
[7]
  MIC: 75 µg/mL (≈ 357 µM)
[28]
  MIC: 6.3 µg/mL (≈ 30 µM)

## C=C/C(C)=C/[C@@]1(C)SC(=O)C(CCCCc2ccc(Br)cc2)=C1O [TLM8]
[1]; [29]
  MIC: > 100 µg/mL
[2]
  MIC: 126 µg/mL (≈ 309 µM)
[3]
  MIC: 2.17 µg/mL (≈ 5.33 µM)
[4]; MIC99, H37Rv
  MIC99: 25 µg/mL (≈ 61.4 µM)
[5]
  MIC: 250 µg/mL (≈ 614 µM)
[6]; [30]
  MIC: 32 µg/mL (≈ 78.6 µM)
[7]; MIC90
  MIC: 50 µg/mL (≈ 123 µM)

## C=C/C(C)=C/[C@@]1(C)SC(=O)C=C1OCC(=O)NCCNC(=O)OC(C)(C)C [TLM41]
[10]
  MIC: > 256 µg/mL
[3]
  MIC: 54.5 µg/mL (≈ 137 µM)
[4]; MIC99, H37Rv
  MIC99: > 100 µg/mL
[6]; [30]
  MIC: > 64 µg/mL
[7]; MIC90
  MIC: > 64 µg/mL

## C=C/C(C)=C/[C@@]1(C)SC(=O)C(C(=O)c2ccccc2C(=O)O)=C1O [TLM39]
[10]
  MIC: 155 µg/mL (≈ 449 µM)
[3]
  MIC: 16 µg/mL (≈ 46.4 µM)
[4]; MIC99, H37Rv
  MIC99: > 100 µg/mL
[6]; [30]
  MIC: 32 µg/mL (≈ 92.9 µM)
[7]; MIC90
  MIC: 32 µg/mL (≈ 92.9 µM)

## C=C/C(C)=C/[C@@]1(C)SC(=O)C(CC)=C1O [TLM3, 5R-(+)-3-Ethylthiolactomycin]
[1]; [29]
  MIC: > 100 µg/mL
[2]
  MIC: 148 µg/mL (≈ 661 µM)
[3]
  MIC: 6.9 µg/mL (≈ 30.8 µM)
[4]; MIC99, H37Rv
  MIC99: < 7.8 µg/mL
[5]
  MIC: 145 µg/mL (≈ 645 µM)
[6]; [30]
  MIC: 150 µg/mL (≈ 669 µM)
[7]; MIC90
  MIC: 125 µg/mL (≈ 557 µM)

## C=C/C(C)=C/[C@@]1(C)SC(=O)C(C(=O)C(F)(F)F)=C1O [TLM36]
[10]
  MIC: 160 µg/mL (≈ 547 µM)
[3]
  MIC: 98.1 µg/mL (≈ 336 µM)
[4]; MIC99, H37Rv
  MIC99: > 100 µg/mL
[6]; [30]
  MIC: > 64 µg/mL
[7]; MIC90
  MIC: 64 µg/mL (≈ 219 µM)

## C=C/C(C)=C/[C@@]1(C)SC(=O)C(C(=O)OC)=C1O [TLM37]
[10]
  MIC: 160 µg/mL (≈ 631 µM)
[3]
  MIC: 58.2 µg/mL (≈ 229 µM)
[4]; MIC99, H37Rv
  MIC99: 100 µg/mL (≈ 393 µM)
[6]; [30]
  MIC: > 64 µg/mL
[7]; MIC90
  MIC: > 64 µg/mL

## C=C/C(C)=C/[C@@]1(C)SC(=O)C(CCc2ccc(C)cc2)=C1O [TLM5]
[1]; [29]
  MIC: > 100 µg/mL
[2]
  MIC: 250 µg/mL (≈ 795 µM)
[3]
  MIC: 3.45 µg/mL (≈ 11 µM)
[4]; MIC99, H37Rv
  MIC99: 25 µg/mL (≈ 79.5 µM)
[5]
  MIC: 250 µg/mL (≈ 795 µM)
[6]; [30]
  MIC: > 64 µg/mL
[7]; MIC90
  MIC: > 100 µg/mL

## C=C/C(C)=C/[C@@]1(C)SC(=O)C(C(=O)CCCCCCCCCCCCCCC)=C1O [TLM43]
[10]
  MIC: 1.36 µg/mL (≈ 3.13 µM)
[4]; MIC99, H37Rv
  MIC99: > 100 µg/mL
[6]; [30]
  MIC: 0.5 µg/mL (≈ 1.15 µM)
[7]; MIC90
  MIC: 1 µg/mL (≈ 2.3 µM)

## C=C/C(C)=C/[C@@]1(C)SC(=O)C=C1OCC(=O)NCCN=[N+]=[N-] [TLM40]
[10]
  MIC: > 256 µg/mL
[3]
  MIC: 39.1 µg/mL (≈ 121 µM)
[4]; MIC99, H37Rv
  MIC99: > 100 µg/mL
[6]; [30]
  MIC: > 64 µg/mL
[7]; MIC90
  MIC: > 64 µg/mL

## C=C/C(C)=C/[C@@]1(C)SC(=O)C=C1OCC(=O)NCCn1cc(CNC(=O)c2ccc(NS(=O)(=O)c3ccc(F)cc3)cc2)nn1 [TLM42]
[10]
  MIC: 178 µg/mL (≈ 272 µM)
[3]
  MIC: > 256 µg/mL
[4]; MIC99, H37Rv
  MIC99: 100 µg/mL (≈ 153 µM)
[6]; [30]
  MIC: > 64 µg/mL
[7]; MIC90
  MIC: > 64 µg/mL

## C=C/C(C)=C/[C@@]1(C)SC(=O)C(CCCCn2cc(CNC(=O)[C@H](O)C(C)(C)CO)nn2)=C1O [TLM33]
[2]
  MIC: 250 µg/mL (≈ 522 µM)
[3]
  MIC: 250 µg/mL (≈ 522 µM)
[4]; MIC99, H37Rv
  MIC99: > 100 µg/mL
[5]
  MIC: 250 µg/mL (≈ 522 µM)
[6]; [30]
  MIC: > 64 µg/mL
[7]; MIC90
  MIC: > 100 µg/mL
